# According to patent US20100160385A1, “FUNGICIDAL TRIPHENYL-SUBSTITUTED PYRIDONES” (E.I. DU PONT DE NEMOURS AND COMPANY, priority 2008, published 2010):
# How the values were obtained:
# Alternaria solani = details: tomato seedlings sprayed to run-off, inoculated following day, 48 h saturated atmosphere at 27° C. then 5 days at 20° C.; 100 = 100% disease control, 0 = no control; test concentration not given
# [1] = test system: Erysiphe graminis f. sp. tritici; assay: Test A: wheat powdery mildew, preventive spray on wheat seedlings; format: in vivo; details: wheat seedlings sprayed to run-off, inoculated following day, rated after 8 days at 20° C.; 100 = 100% disease control, 0 = no control; test concentration not given
# [2] = test system: Puccinia recondite f. sp. tritici; assay: Test B: wheat leaf rust, preventive spray on wheat seedlings; format: in vivo; details: wheat seedlings sprayed to run-off, inoculated following day, 24 h saturated atmosphere then 7 days at 20° C.; 100 = 100% disease control, 0 = no control; test concentration not given
# Septoria tritici = assay: Test C: wheat leaf blotch, preventive spray on wheat seedlings; format: in vivo; details: wheat seedlings sprayed to run-off, inoculated following day, 48 h saturated atmosphere then 19 days at 20° C.; 100 = 100% disease control, 0 = no control; test concentration not given
# Septoria nodorum = assay: Test D: wheat glume blotch, preventive spray on wheat seedlings; format: in vivo; details: wheat seedlings sprayed to run-off, inoculated following day, 48 h saturated atmosphere then 7 days at 20° C.; 100 = 100% disease control, 0 = no control; test concentration not given
# Botrytis cinerea = details: tomato seedlings sprayed to run-off, inoculated following day, 48 h saturated atmosphere at 20° C. then 3 days at 24° C.; 100 = 100% disease control, 0 = no control; test concentration not given
smiles,measurement,setting,value
"COc1cc(OC)c(Cl)c(-n2c(-c3ccc(F)cc3)cc(=O)c(C)c2-c2c(F)cc(F)cc2F)c1 [Compound 1, 1-(2-chloro-3-5-dimethoxyphenyl)-6-(4-fluorophenyl)-3-methyl-2-(2,4,6-trifluorophenyl)-4-(1H)-pyridinone]",Test E disease control rating,Alternaria solani,100%
same,Test A disease control rating,[1],99%
same,Test B disease control rating,[2],100%
same,Test C disease control rating,Septoria tritici,97%
same,Test D disease control rating,Septoria nodorum,100%
same,Test F disease control rating,Botrytis cinerea,98%
